According to patent US11512090B2, “Muscarinic acetylcholine M1 receptor antagonists” (PIPELINE THERAPEUTICS, INC., priority 2018, dated 2022):
Where two headings read alike, the source gives them in different places.

Legend:
Type in all cases: cell-based
M3 = M3 (Homo sapiens, UniProt P20309); assay: In vitro functional assay of muscarinic acetylcholine receptor activity, M3; settings: antagonist IC50 at M3; read-out: M3 IC50
M2 = biological target: T1, M2 (Homo sapiens, UniProt P08172); assay: In vitro functional assay of muscarinic acetylcholine receptor activity, M2
T1 sequence (P08172 1-466): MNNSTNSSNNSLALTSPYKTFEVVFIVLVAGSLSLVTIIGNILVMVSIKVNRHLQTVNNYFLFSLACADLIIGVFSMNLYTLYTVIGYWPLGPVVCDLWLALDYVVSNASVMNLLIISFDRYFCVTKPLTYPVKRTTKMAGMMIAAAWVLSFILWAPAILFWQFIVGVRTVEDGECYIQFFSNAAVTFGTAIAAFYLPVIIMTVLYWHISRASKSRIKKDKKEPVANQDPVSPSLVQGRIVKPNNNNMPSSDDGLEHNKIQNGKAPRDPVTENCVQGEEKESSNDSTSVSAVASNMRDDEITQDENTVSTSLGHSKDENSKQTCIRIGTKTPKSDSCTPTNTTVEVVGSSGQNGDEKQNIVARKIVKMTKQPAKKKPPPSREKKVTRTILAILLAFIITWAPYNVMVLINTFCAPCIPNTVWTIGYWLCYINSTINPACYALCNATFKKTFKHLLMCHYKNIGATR

human M1 receptor = biological target: T2, human M1 receptor (Homo sapiens, UniProt P11229); assay: In vitro functional assay of muscarinic acetylcholine receptor activity (aequorin calcium flux, antagonist mode vs EC80 acetylcholine), M1
T2 sequence (P11229 1-460): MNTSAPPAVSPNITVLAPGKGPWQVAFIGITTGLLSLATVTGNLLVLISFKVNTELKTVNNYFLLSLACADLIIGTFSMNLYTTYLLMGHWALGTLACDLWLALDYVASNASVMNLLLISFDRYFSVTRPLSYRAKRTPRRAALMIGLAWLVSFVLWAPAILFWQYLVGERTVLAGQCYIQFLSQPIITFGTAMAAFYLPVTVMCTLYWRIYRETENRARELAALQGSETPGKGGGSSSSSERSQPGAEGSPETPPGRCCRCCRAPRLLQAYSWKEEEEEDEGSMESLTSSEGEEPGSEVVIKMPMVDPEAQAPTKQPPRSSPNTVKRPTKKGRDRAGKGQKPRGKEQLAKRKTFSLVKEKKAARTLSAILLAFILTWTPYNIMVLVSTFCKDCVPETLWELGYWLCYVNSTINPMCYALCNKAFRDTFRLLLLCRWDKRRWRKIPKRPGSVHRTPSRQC
Procedure, shortened: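 Antagonism at M1 was measured as a concentration-dependent reduction of the EC80 acetylcholine-evoked aequorin luminescence, from which IC50 was derived. Human M1 CHO-K1 aequorin cells were first loaded with 5 uM coelenterazine h for 4 h and exposed to compound for 30 min at room temperature.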

[1] = antagonist IC50 at M2, read-out: M2 IC50
[2] = CHO-K1 cells stably expressing human M1 receptor with Aequorin, decrease in EC80 acetylcholine response, read-out: M1 IC50

Sequence of M3 (P20309 whole entry): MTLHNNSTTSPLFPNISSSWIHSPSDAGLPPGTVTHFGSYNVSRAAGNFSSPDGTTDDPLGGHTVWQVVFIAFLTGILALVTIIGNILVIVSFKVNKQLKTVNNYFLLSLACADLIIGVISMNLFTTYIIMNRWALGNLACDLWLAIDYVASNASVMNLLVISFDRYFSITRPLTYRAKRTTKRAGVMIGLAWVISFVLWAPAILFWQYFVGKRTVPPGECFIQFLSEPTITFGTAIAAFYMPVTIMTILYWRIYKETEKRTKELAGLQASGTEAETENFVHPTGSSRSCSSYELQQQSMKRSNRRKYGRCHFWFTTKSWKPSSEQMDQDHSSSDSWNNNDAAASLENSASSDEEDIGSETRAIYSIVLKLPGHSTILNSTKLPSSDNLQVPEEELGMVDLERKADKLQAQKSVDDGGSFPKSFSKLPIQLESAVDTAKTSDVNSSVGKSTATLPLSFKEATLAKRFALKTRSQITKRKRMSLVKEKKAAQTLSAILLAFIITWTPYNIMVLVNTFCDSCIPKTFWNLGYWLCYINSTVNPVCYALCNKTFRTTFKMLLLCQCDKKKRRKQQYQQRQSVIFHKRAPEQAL

Row | Compound | IC50 (M3) [nM] | IC50 (M2; [1]) [nM] | IC50 (human M1 receptor) [nM] | IC50 (human M1 receptor; [2]) [nM] | IC50 (M2) [nM]
1 | O=C(CCS(=O)(=O)c1cccc2nccn12)N1C[C@H]2CC[C@@H](C1)N2c1ccncc1F [Example 104, 1-((1R,5S)-8-(3-fluoropyridin-4-yl)-3,8-diazabicyclo[3.2.1]octan-3-yl)-3-(imidazo[1,2-a]pyridin-5-ylsulfonyl)propan-1-one] | 1000 to 10000 | 1000 to 10000 | < 100 | – | –
2 | O=C(CCOCc1cccc2ncccc12)N1C[C@H]2CC[C@@H](C1)N2c1ccc(F)cn1 [Example 48, 1-((1R,5S)-8-(5-fluoropyridin-2-yl)-3,8-diazabicyclo[3.2.1]octan-3-yl)-3-(quinolin-5-ylmethoxy)propan-1-one] | > 10000 | 1000 to 10000 | 100 to 1000 | – | –
3 | O=C(CCS(=O)(=O)c1cccc2ncsc12)N1CCC(c2ccc(C(F)(F)F)cn2)CC1 [Example 22, 3-(1,3-benzothiazole-7-sulfonyl)-1-[4-[5-(trifluoromethyl)pyridin-2-yl]piperidin-1-yl]propan-1-one] | 1000 to 10000 | 1000 to 10000 | – | 100 to 1000 | –
4 | O=C(CCNCc1cccc2ncnn12)N1CC2CCC(C1)N2c1ccc(Cl)cn1 [Example 157, 1-[8-(5-chloropyridin-2-yl)-3,8-diazabicyclo[3.2.1]octan-3-yl]-3-[({[1,2,4]triazolo[1,5-a]pyridin-5-yl}methyl)amino]propan-1-one] | > 10000 | > 10000 | < 100 | – | –
5 | N#Cc1ccc(N2C3CCC2CN(C(=O)CCN(Cc2cccc4ncsc24)C2CC2)C3)nc1 [Example 35, 6-[3-(3-{[(1,3-benzothiazol-7-yl)methyl](cyclopropyl)amino}propanoyl)-3,8-diazabicyclo[3.2.1]octan-8-yl]pyridine-3-carbonitrile] | 100 to 1000 | 100 to 1000 | < 100 | – | –
6 | O=C(CCS(=O)(=O)c1cccc2ncsc12)N1CCC2(c3ccc(C(F)(F)F)cn3)CC2C1 (stereo not drawn) [Example 32, 3-(1,3-benzothiazole-7-sulfonyl)-1-{6-[5-(trifluoromethyl)pyridin-2-yl]-3-azabicyclo[4.1.0]heptan-3-yl}propan-1-one] | 1000 to 10000 | 1000 to 10000 | – | 100 to 1000 | –
7 | Cc1cc(C#N)cnc1N1CC2CCC(C1)N2C(=O)CCNCc1cccc2ncsc12 [Example 161, 6-[8-(3-{[(1,3-benzothiazol-7-yl)methyl]amino}propanoyl)-3,8-diazabicyclo[3.2.1]octan-3-yl]-5-methylpyridine-3-carbonitrile] | > 10000 | 1000 to 10000 | 100 to 1000 | – | –
8 | O=C([C@H]1C[C@H](Oc2cccc3ncsc23)C1)N1CC2CCC(C1)N2c1ccc(F)cn1 [Example 63, ((1r,3R)-3-(benzo[d]thiazol-7-yloxy)cyclobutyl)((1R,5S)-8-(5-fluoropyridin-2-yl)-3,8-diazabicyclo[3.2.1]octan-3-yl)methanone] | > 10000 | – | – | 1000 to 10000 | 100 to 1000
9 | C[C@@H]1CN(c2ccc(F)c(C#N)c2)CCN1C(=O)CCCc1cccc2ncccc12 [Example 23, (R)-2-fluoro-5-(3-methyl-4-(4-(quinolin-5-yl)butanoyl)piperazin-1-yl)benzonitrile] | 1000 to 10000 | 1000 to 10000 | – | < 100 | –
10 | O=C(CCOCc1cccc2cnccc12)N1C[C@H]2CC[C@@H](C1)N2c1ccc(F)cn1 [Example 49, 1-((1R,5S)-8-(5-fluoropyridin-2-yl)-3,8-diazabicyclo[3.2.1]octan-3-yl)-3-(isoquinolin-5-ylmethoxy)propan-1-one] | > 10000 | 1000 to 10000 | 100 to 1000 | – | –
11 | Cc1cc(C#N)cnc1N1CCN(C(=O)CCS(=O)(=O)c2cccc3ncsc23)[C@@H](C)C1 [Example 124, 6-[(3S)-4-[3-(1,3-benzothiazole-7-sulfonyl)propanoyl]-3-methylpiperazin-1-yl]-5-methylpyridine-3-carbonitrile] | 100 to 1000 | 100 to 1000 | – | < 100 | –
